Experiments:
[1] = system: sugar beet; assay: Test C preemergence/postemergence greenhouse plant response rating 0 to 100; assay type: in vivo, Beta vulgaris; conditions: for Plant response rating, Sugar beet: 125 g/ha, 0 to 100 scale
Outline: (§1)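 Compounds in non-phytotoxic solvent applied preemergence to sandy loam one day after planting, postemergence at the 1–4 leaf stage, or to ~2.5 cm floodwater over silt loam.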

[2] = system: blackgrass; assay: as above; assay type: in vivo, Alopecurus myosuroides; conditions: for Plant response rating, Blackgrass: 125 g/ha, 0 to 100 scale
Outline: as §1

[3] = system: bedstraw; assay: Test B preemergence/postemergence greenhouse plant response rating 0 to 10; assay type: in vivo, Galium aparine; conditions: for Plant response rating, Bedstraw: 0 to 10 scale
Outline: (§2)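 Planted seeds are treated preemergence with compound dissolved in a non-phytotoxic solvent, while postemergence applications go onto plants of two to eighteen cm. Plants stay in the greenhouse twelve to sixteen days and are then rated visually relative to controls.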

[4] = system: bedstraw; assay: Test C preemergence/postemergence greenhouse plant response rating 0 to 100; assay type: in vivo, Galium aparine; conditions: for Plant response rating, Bedstraw: 125 g/ha, 0 to 100 scale
Outline: as §1

[5] = system: duck salad; assay: Test C flood test plant response rating 0 to 100; assay type: in vivo, Heteranthera limosa
Outline: as §1

[6] = system: barley; assay: Test B preemergence/postemergence greenhouse plant response rating 0 to 10; assay type: in vivo, Hordeum vulgare; conditions: for Plant response rating, Barley: 0 to 10 scale
Outline: as §2

[7] = system: pigweed; assay: Test C preemergence/postemergence greenhouse plant response rating 0 to 100; assay type: in vivo, Amaranthusretroflexus; conditions: for Plant response rating Pigweed: 125 g/ha, 0 to 100 scale
Outline: as §1

[8] = system: sorghum; assay: Test B preemergence/postemergence greenhouse plant response rating 0 to 10; assay type: in vivo, Sorghum bicolor; conditions: for Plant response rating, Sorghum: 0 to 10 scale
Outline: as §2

[9] = system: wheat; assay: as above; assay type: in vivo, Triticum aestivum; conditions: for Plant response rating, Wheat: 0 to 10 scale
Outline: as §2

[10] = system: cheatgrass; assay: as above; assay type: in vivo, Bromus secalinus; conditions: for Plant response rating, Cheatgrass: 0 to 10 scale
Outline: as §2

[11] = system: barley; assay: Test C preemergence/postemergence greenhouse plant response rating 0 to 100; assay type: in vivo, Hordeum vulgare; conditions: for Plant response rating Barley Igri: 125 g/ha, 0 to 100 scale
Outline: as §1

[12] = system: blackgrass; assay: Test B preemergence/postemergence greenhouse plant response rating 0 to 10; assay type: in vivo, Alopecurus myosuroides; conditions: for Plant response rating, Blackgrass: 0 to 10 scale
Outline: as §2

[13] = system: rice; assay: as above; assay type: in vivo, Oryza sativa; conditions: for Plant response rating, Rice: 0 to 10 scale
Outline: as §2

[14] = system: ryegrass; assay: Test C preemergence/postemergence greenhouse plant response rating 0 to 100; assay type: in vivo, Lolium multiflorum; conditions: for Plant response rating Ryegrass: 125 g/ha, 0 to 100 scale
Outline: as §1

[15] = system: cotton; assay: Test B preemergence/postemergence greenhouse plant response rating 0 to 10; assay type: in vivo, Gossypium hirsutum; conditions: for Plant response rating, Cotton: 0 to 10 scale
Outline: as §2

[16] = system: wild buckwheat; assay: Test C preemergence/postemergence greenhouse plant response rating 0 to 100; assay type: in vivo, Polygonum convolvulus; conditions: for Plant response rating, Wild buckwheat: 125 g/ha, 0 to 100 scale
Outline: as §1

[17] = system: sorghum; assay: as above; assay type: in vivo, Sorghum bicolor; conditions: for Plant response rating, Sorghum: 125 g/ha, 0 to 100 scale
Outline: as §1

[18] = system: rape; assay: Test B preemergence/postemergence greenhouse plant response rating 0 to 10; assay type: in vivo, Brassica napus; conditions: for Plant response rating, Rape: 0 to 10 scale
Outline: as §2

COCOc1cc(-c2nn3c(c2Cl)CCCC3)c(F)cc1Cl [Compound 58]
Plant response rating, Sugar beet ([1]; POSTEMERGENCE): 100
Plant response rating (0 to 100), Sugar beet ([1]; POSTEMERGENCE, Rate 2 g/ha): 100
Plant response rating, Sugar beet ([1]; PREEMERGENCE): 100
Plant response rating (0 to 100), Sugar beet ([1]; PREEMERGENCE, Rate 2 g/ha): 10
Plant response rating (0 to 100), Sugar beet ([1]; Rate 8 g/ha, POSTEMERGENCE): 100
Plant response rating (0 to 100), Sugar beet ([1]; Rate 8 g/ha, PREEMERGENCE): 85
Plant response rating (0 to 100), Sugar beet ([1]; Rate 31 g/ha, POSTEMERGENCE): 100
Plant response rating (0 to 100), Sugar beet ([1]; Rate 31 g/ha, PREEMERGENCE): 90
Plant response rating, Blackgrass ([2]; POSTEMERGENCE): 85
Plant response rating (0 to 100), Blackgrass ([2]; POSTEMERGENCE, Rate 2 g/ha): 20
Plant response rating, Blackgrass ([2]; PREEMERGENCE): 70
Plant response rating (0 to 100), Blackgrass ([2]; PREEMERGENCE, Rate 2 g/ha): 0
Plant response rating (0 to 100), Blackgrass ([2]; Rate 8 g/ha, POSTEMERGENCE): 50
Plant response rating (0 to 100), Blackgrass ([2]; Rate 8 g/ha, PREEMERGENCE): 20
Plant response rating (0 to 100), Blackgrass ([2]; Rate 31 g/ha, POSTEMERGENCE): 65
Plant response rating (0 to 100), Blackgrass ([2]; Rate 31 g/ha, PREEMERGENCE): 60
Plant response rating, Bedstraw ([3]; POSTEMERGENCE, Rate 50 g/ha): 10
Plant response rating, Bedstraw ([3]; PREEMERGENCE, Rate 50 g/ha): 6
Plant response rating (0 to 10 scale), Bedstraw ([3]; PREEMERGENCE, Rate 200 g/ha): 9
Plant response rating, Bedstraw ([3]; Rate 200 g/ha, POSTEMERGENCE): 9
Plant response rating, Bedstraw ([4]; POSTEMERGENCE): 100
Plant response rating (0 to 100), Bedstraw ([4]; POSTEMERGENCE, Rate 2 g/ha): 60
Plant response rating, Bedstraw ([4]; PREEMERGENCE): 70
Plant response rating (0 to 100), Bedstraw ([4]; PREEMERGENCE, Rate 2 g/ha): 0
Plant response rating (0 to 100), Bedstraw ([4]; Rate 8 g/ha, POSTEMERGENCE): 100
Plant response rating (0 to 100), Bedstraw ([4]; Rate 8 g/ha, PREEMERGENCE): 10
Plant response rating (0 to 100), Bedstraw ([4]; Rate 31 g/ha, PREEMERGENCE): 50
Plant response rating (0 to 100), Duck salad ([5]; POSTEMERGENCE section, flood test, Rate 2 g/ha): 0
Plant response rating (0 to 100), Duck salad ([5]; Rate 8 g/ha, under POSTEMERGENCE head (flood test species)): 20
Plant response rating (0 to 100), Duck salad ([5]; Rate 31 g/ha, under POSTEMERGENCE head (flood test species)): 80
Plant response rating Duck salad ([5]; flood test species listed under POSTEMERGENCE, 125 g/ha, 0 to 100 scale): 85
Plant response rating, Barley ([6]; POSTEMERGENCE, Rate 50 g/ha): 6
Plant response rating, Barley ([6]; PREEMERGENCE, Rate 50 g/ha): 1
Plant response rating (0 to 10 scale), Barley ([6]; PREEMERGENCE, Rate 200 g/ha): 4
Plant response rating, Barley ([6]; Rate 200 g/ha, POSTEMERGENCE): 8
Plant response rating Pigweed ([7]; POSTEMERGENCE): 100
Plant response rating (0 to 100), Pigweed ([7]; POSTEMERGENCE, Rate 2 g/ha): 90
Plant response rating Pigweed ([7]; PREEMERGENCE): 100
Plant response rating (0 to 100), Pigweed ([7]; PREEMERGENCE, Rate 2 g/ha): 0
Plant response rating (0 to 100), Pigweed ([7]; Rate 8 g/ha, POSTEMERGENCE): 100
Plant response rating (0 to 100), Pigweed ([7]; Rate 8 g/ha, PREEMERGENCE): 100
Plant response rating (0 to 100), Pigweed ([7]; Rate 31 g/ha, POSTEMERGENCE): 100
Plant response rating (0 to 100), Pigweed ([7]; Rate 31 g/ha, PREEMERGENCE): 100
Plant response rating, Sorghum ([8]; POSTEMERGENCE, Rate 50 g/ha): 4
Plant response rating, Sorghum ([8]; PREEMERGENCE, Rate 50 g/ha): 2
Plant response rating (0 to 10 scale), Sorghum ([8]; PREEMERGENCE, Rate 200 g/ha): 3
Plant response rating, Sorghum ([8]; Rate 200 g/ha, POSTEMERGENCE): 6
Plant response rating, Wheat ([9]; POSTEMERGENCE, Rate 50 g/ha): 7
Plant response rating, Wheat ([9]; PREEMERGENCE, Rate 50 g/ha): 2
Plant response rating (0 to 10 scale), Wheat ([9]; PREEMERGENCE, Rate 200 g/ha): 7
Plant response rating, Wheat ([9]; Rate 200 g/ha, POSTEMERGENCE): 8
Plant response rating, Cheatgrass ([10]; POSTEMERGENCE, Rate 50 g/ha): 7
Plant response rating, Cheatgrass ([10]; PREEMERGENCE, Rate 50 g/ha): 4
Plant response rating (0 to 10 scale), Cheatgrass ([10]; PREEMERGENCE, Rate 200 g/ha): 8
Plant response rating, Cheatgrass ([10]; Rate 200 g/ha, POSTEMERGENCE): 10
Plant response rating Barley Igri ([11]; POSTEMERGENCE): 60
Plant response rating (0 to 100), Barley Igri ([11]; POSTEMERGENCE, Rate 2 g/ha): 30
Plant response rating Barley Igri ([11]; PREEMERGENCE): 30
Plant response rating (0 to 100), Barley Igri ([11]; PREEMERGENCE, Rate 2 g/ha): 0
Plant response rating (0 to 100), Barley Igri ([11]; Rate 8 g/ha, POSTEMERGENCE): 40
Plant response rating (0 to 100), Barley Igri ([11]; Rate 8 g/ha, PREEMERGENCE): 0
Plant response rating (0 to 100), Barley Igri ([11]; Rate 31 g/ha, POSTEMERGENCE): 50
Plant response rating (0 to 100), Barley Igri ([11]; Rate 31 g/ha, PREEMERGENCE): 0
Plant response rating, Blackgrass ([12]; POSTEMERGENCE, Rate 50 g/ha): 6
Plant response rating, Blackgrass ([12]; PREEMERGENCE, Rate 50 g/ha): 4
Plant response rating (0 to 10 scale), Blackgrass ([12]; PREEMERGENCE, Rate 200 g/ha): 7
Plant response rating, Blackgrass ([12]; Rate 200 g/ha, POSTEMERGENCE): 7
Plant response rating, Rice ([13]; POSTEMERGENCE, Rate 50 g/ha): 4
Plant response rating, Rice ([13]; PREEMERGENCE, Rate 50 g/ha): 0
Plant response rating (0 to 10 scale), Rice ([13]; PREEMERGENCE, Rate 200 g/ha): 0
Plant response rating, Rice ([13]; Rate 200 g/ha, POSTEMERGENCE): 5
Plant response rating Ryegrass ([14]; POSTEMERGENCE): 85
Plant response rating (0 to 100), Ryegrass ([14]; POSTEMERGENCE, Rate 2 g/ha): 10
Plant response rating Ryegrass ([14]; PREEMERGENCE): 100
Plant response rating (0 to 100), Ryegrass ([14]; PREEMERGENCE, Rate 2 g/ha): 0
Plant response rating (0 to 100), Ryegrass ([14]; Rate 8 g/ha, POSTEMERGENCE): 30
Plant response rating (0 to 100), Ryegrass ([14]; Rate 8 g/ha, PREEMERGENCE): 0
Plant response rating (0 to 100), Ryegrass ([14]; Rate 31 g/ha, POSTEMERGENCE): 60
Plant response rating (0 to 100), Ryegrass ([14]; Rate 31 g/ha, PREEMERGENCE): 50
Plant response rating, Cotton ([15]; POSTEMERGENCE, Rate 50 g/ha): 10
Plant response rating, Cotton ([15]; PREEMERGENCE, Rate 50 g/ha): 0
Plant response rating (0 to 10 scale), Cotton ([15]; PREEMERGENCE, Rate 200 g/ha): 0
Plant response rating, Cotton ([15]; Rate 200 g/ha, POSTEMERGENCE): 10
Plant response rating, Wild buckwheat ([16]; POSTEMERGENCE): 100
Plant response rating (0 to 100), Wild buckwheat ([16]; POSTEMERGENCE, Rate 2 g/ha): 100
Plant response rating, Wild buckwheat ([16]; PREEMERGENCE): 100
Plant response rating (0 to 100), Wild buckwheat ([16]; PREEMERGENCE, Rate 2 g/ha): 0
Plant response rating (0 to 100), Wild buckwheat ([16]; Rate 8 g/ha, POSTEMERGENCE): 100
Plant response rating (0 to 100), Wild buckwheat ([16]; Rate 8 g/ha, PREEMERGENCE): 40
Plant response rating (0 to 100), Wild buckwheat ([16]; Rate 31 g/ha, POSTEMERGENCE): 100
Plant response rating (0 to 100), Wild buckwheat ([16]; Rate 31 g/ha, PREEMERGENCE): 100
Plant response rating, Sorghum ([17]; POSTEMERGENCE): 85
Plant response rating (0 to 100), Sorghum ([17]; POSTEMERGENCE, Rate 2 g/ha): 30
Plant response rating, Sorghum ([17]; PREEMERGENCE): 20
Plant response rating (0 to 100), Sorghum ([17]; PREEMERGENCE, Rate 2 g/ha): 0
Plant response rating (0 to 100), Sorghum ([17]; Rate 8 g/ha, POSTEMERGENCE): 50
Plant response rating (0 to 100), Sorghum ([17]; Rate 8 g/ha, PREEMERGENCE): 0
Plant response rating (0 to 100), Sorghum ([17]; Rate 31 g/ha, POSTEMERGENCE): 50
Plant response rating (0 to 100), Sorghum ([17]; Rate 31 g/ha, PREEMERGENCE): 10
Plant response rating, Rape ([18]; POSTEMERGENCE, Rate 50 g/ha): 9
Plant response rating, Rape ([18]; PREEMERGENCE, Rate 50 g/ha): 5
Plant response rating (0 to 10 scale), Rape ([18]; PREEMERGENCE, Rate 200 g/ha): 5
Plant response rating, Rape ([18]; Rate 200 g/ha, POSTEMERGENCE): 10
